Laboratory results as given in patent US20210353595A1, “USE OF MELATONIN IN PREPARATION OF MEDICAMENT FOR INHIBITING AND/OR KILLING BACTERIUM” (priority 2020, published 2021).
Converted amounts (≈) assume the structure as drawn.

Experiments:
[1] = tested on: gram-negative bacteria and gram-positive bacteria; test: MIC/MBC test, summary over all tested bacteria; type: cell-based; settings: range over all gram-negative and gram-positive bacteria of Table 1
Experimental: 1 mL of a fresh suspension of bacteria (1×10^9 CFU) at the logarithmic growth stage was added into 100 mL containing different concentrations (50 mg/mL, 25 mg/mL, 12.5 mg/mL, 6.25 mg/mL, 3.125 mg/mL, 1.5625 mg/mL, 0.78125 mg/mL, 0.390625 mg/mL) of melatonin. A melatonin (MT)-free solution diluted with DMSO was used as a control group. The samples were shaken at 37° C. and a rotation speed of 120 r/min with protection from light for 12 hours, and then subjected to detection of the minimal inhibitory concentration (MIC) of MT on bacteria. Then, 0.1 mL of the aforementioned transparent bacterial solution was pipetted onto a sterilized agar plate of a specific culture medium and coated evenly, incubated in an incubator at 37° C. for 24 hours, and then subjected to detection of the minimum bactericidal concentration (MBC) of MT on pathogens, wherein the minimum concentration of MT at which no bacterium grew was the MBC of MT on pathogens. Each experiment was carried out for 3 times, and each group was set in triplicate.

[2] = tested on: Streptococcus; test: Growth curve with melatonin and citric acid; type: cell-based, Streptococcus pneumoniae; settings: MT 1-3 mg/mL, FIG. 27
Experimental: In additional studies, 1 mL of Klebsiella pneumoniae, Pseudomonas aeruginosa, Diplococcus pneumoniae and Streptococcus pneumoniae at the logarithmic growth stage was added into 100 mL of fresh and sterile Martin broth medium containing different concentrations of melatonin and citric acid (CA) (MT-1 mg/mL, MT-1 mg/mL-CA-1 mg/mL, MT-1 mg/mL-CA-2 mg/mL, MT-1 mg/mL-CA-3 mg/mL; MT-2 mg/mL, MT-2 mg/mL-CA-1 mg/mL, MT-2 mg/mL-CA-2 mg/mL, MT-2 mg/mL-CA-3 mg/mL; MT-3 mg/mL, MT-3 mg/mL-CA-1 mg/mL, MT-3 mg/mL-CA-2 mg/mL MT-3 mg/mL-CA-3 mg/mL).

[3] = tested on: citrate synthase in Klebsiella pneumoniae; test: Citrate synthase activity of bacteria after treatment; type: cell-based; settings: MT 1-3 mg/mL, 12 h, FIG. 28
Experimental: (§1) Further, 1 mL of Klebsiella pneumoniae, Pseudomonas aeruginosa, Diplococcus pneumoniae and Streptococcus pneumoniae at the logarithmic growth stage was added into 100 mL of fresh and sterile Martin broth liquid medium containing different concentrations of melatonin and citric acid (MT-1 mg/mL, MT-2 mg/mL, MT-3 mg/mL, CA-1 mg/mL, CA-2 mg/mL, CA-3 mg/mL, MT-1 mg/mL-CA-1 mg/mL, MT-2 mg/mL-CA-2 mg/mL, MT-3 mg/mL-CA-3 mg/mL) added was. Melatonin-free DMSO was used as the solvent control group, and the bacterial cells were cultured in a constant-temperature shaker at 37° C. and 220 rpm for 12 h. Thereafter, 1 mL of the bacterial solution was pipetted and centrifuged at 3000 r/min for 10 minutes. The bacterial cells were then collected and determined for citrate synthase activity according to the protocol of the instructions for the kit. Each experiment was repeated three times, and each group was set in triplicate.

[4] = molecular target: T1, citrate synthase in Pseudomonas aeruginosa (Pseudomonas aeruginosa, UniProt P14165); test: as above; type: cell-based; settings: MT 1-3 mg/mL, 12 h, FIG. 28
T1 construct: The bacterial cells were then collected and determined for citrate synthase activity according to the protocol of the instructions for the kit; endogenous in cells; host or cells: Pseudomonas aeruginosa culture
Experimental: as §1

[5] = tested on: citrate synthase in Pneumococcus; test: as above; type: cell-based, Diplococcus pneumoniae; settings: MT 1-3 mg/mL, 12 h, also with exogenous citric acid, FIG. 28
Experimental: as §1

[6] = tested on: Pasteurella multocida; test: Treatment of Pasteurella multocida infection by melatonin in mice; type: in vivo, C57BL/6 mice; settings: intraperitoneal at 30 minutes, 6, 12 and 18 hours after infection
Experimental: Mice were randomly divided into four groups (10 mice in each group) as described in #1, described above. In the experimental group, after infection with 2.2×10^5 CFU of Pasteurella multocida through intraperitoneal injection, MT was injected intraperitoneally for four times, with the first injection 30 minutes after Pasteurella multocida infection, then the injection was performed once every 6 hours, for three times in total. Control mice were given an equal amount of DMSO at the same four time points. Subsequently, the survival rate of mice within 7 days was recorded. At the same time, mice were euthanized at 12 h, 16 h, 24 h and 32 h after infection to collect tissue and serum samples for later ELISA and bacterial count analysis.
In order to measure the colonization of mouse lung bacteria before and after melatonin treatment, the lung tissues of mice were collected 24 hours and 32 hours after infection. The tissues were homogenized under aseptic conditions, and the bacterial content was determined by continuous dilution of 10 times in saline. These different dilutions were coated on the Martin broth agar in triplicate and incubated in a constant-temperature incubator at 37° C. for 24 hours to count the bacterial CFU.

[7] = tested on: inflammatory cytokines; test: RT-PCR and ELISA of inflammatory cytokines after Pasteurella multocida infection; type: in vivo, C57BL/6 mice; settings: 24 hours after infection, lung tissues and serum
Experimental: The mouse lung tissue samples were collected, and the total RNA of mouse lung tissues was extracted according to the instructions of the total RNA extraction kit (Invitrogen). According to the instructions of a TaKaRa reverse transcription kit, cDNA was prepared and reverse transcribed with the general process as follows:
The process of qRT-PCR was carried out with reference to previous studies, and (3-actin was used as a reference gene to normalize the transcription level of the target gene. The specific primer sequences used are shown in Table 2. The relative expression level of the gene was calculated according to the equation 2^−(ΔΔCt), wherein ΔΔCt=(CT of the target gene−Ct of the internal reference) of the experimental group−(Ct of the target gene−Ct of the internal reference) of the control group.
ELISA samples were divided into serum samples and lung tissue homogenate samples. Among them, the process of collecting serum was collecting mouse whole blood from the eyeball, storing overnight at 4° C., centrifuging at 5000 rpm for 10 min, collecting the supernatant and storing it at −20° C. for later use. While the preparation process of the mouse lung homogenate was collecting lung tissues, adding 2 mL sterile normal saline to prepare a homogenate, then repeatedly freezing and thawing the homogenate in liquid nitrogen (5 min) and ice-water bath for 3 times, then centrifuging at 4° C. and 12000 rpm for 10 min, and collecting the supernatant for later use. According to the instructions of the kit, the serum and the supernatant of lung tissue homogenate as prepared were detected for IL-10, IL-4, IL-6, IL-10, TNF-α and IFN-γ (eBioscience).

T1 sequence (P14165 whole entry): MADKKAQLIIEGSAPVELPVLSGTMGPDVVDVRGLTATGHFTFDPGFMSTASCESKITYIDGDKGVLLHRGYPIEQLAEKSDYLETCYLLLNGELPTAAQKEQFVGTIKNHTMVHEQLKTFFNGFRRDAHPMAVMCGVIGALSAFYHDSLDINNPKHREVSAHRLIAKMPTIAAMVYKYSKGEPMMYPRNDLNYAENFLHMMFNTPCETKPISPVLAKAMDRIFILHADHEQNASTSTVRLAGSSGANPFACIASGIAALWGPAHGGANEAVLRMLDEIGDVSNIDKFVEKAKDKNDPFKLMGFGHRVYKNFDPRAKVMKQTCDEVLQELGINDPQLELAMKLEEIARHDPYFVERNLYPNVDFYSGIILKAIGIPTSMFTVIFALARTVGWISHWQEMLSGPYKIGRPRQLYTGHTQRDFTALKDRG

With COc1ccc2[nH]cc(CCNC(C)=O)c2c1 [melatonin, N-acetyl-5-methoxytryptamine] the MBC [1] was 3.12 to 50 mg/mL (≈ 13.5 to 215 mM), the MIC [1] was 1.56 to 50 mg/mL (≈ 6.73 to 215 mM) and the antibacterial activity [2] was “exhibits antibacterial activity”. The “enzyme activity of citrate synthase” value [3] was “significantly reduces”, the “enzyme activity of citrate synthase” value [4] was “significantly reduces” and the “enzyme activity of citrate synthase” value [5] was “not influenced”. The survival rate ([6]; FIG. 35) was “improving the survival rate”, the “bacterial colonization in mouse lungs” value ([6]; FIG. 36) was “reducing bacterial colonization” and the “expression of IFN-γ” value [7] was “significantly reduced”. For the same molecule, the “expression of IL-6” value [7] was “significantly reduced”, the “expression of TNF-α” value [7] was “significantly reduced” and the “transcription and expression of IL-4” value [7] was “promoted”. The “transcription and expression of IL-10” value [7] was “promoted”.
